Experimental data: US5849735A, “Tricyclic benzazepine vasopressin antagonists” (American Cyanamid Company, priority 1995, dated 1998)
Blank lines part the entries; values can stand above or below the molecule they belong to.

Key:
[1] = molecular target: T1, vasopressin V1 receptor (human platelet membranes) (Homo sapiens, UniProt P37288); test: Binding to Vasopressin V1 receptor subtype in Human Platelet Membranes
T1 construct: tissue Hudson Valley Blood Services; host or cells: human platelets (frozen platelet rich plasma)
T1 sequence (P37288 whole entry): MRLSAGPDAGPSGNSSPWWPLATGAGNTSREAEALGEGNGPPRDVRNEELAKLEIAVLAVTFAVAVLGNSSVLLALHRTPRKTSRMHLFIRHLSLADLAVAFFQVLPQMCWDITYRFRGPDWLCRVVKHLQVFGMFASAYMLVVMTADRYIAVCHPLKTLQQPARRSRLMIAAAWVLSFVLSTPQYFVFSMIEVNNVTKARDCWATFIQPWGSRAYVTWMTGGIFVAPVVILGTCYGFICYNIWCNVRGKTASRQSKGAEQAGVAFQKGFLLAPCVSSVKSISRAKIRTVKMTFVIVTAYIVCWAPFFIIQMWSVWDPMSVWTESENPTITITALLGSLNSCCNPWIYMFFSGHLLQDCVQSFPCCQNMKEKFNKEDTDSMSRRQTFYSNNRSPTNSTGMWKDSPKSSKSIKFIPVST
Protocol: Radioligand Binding Experiments with Human Platelet Membranes
(a) Platelet Membrane Preparation
Frozen platelet rich plasma (PRP), received from the Hudson Valley Blood Services, are thawed to room temperature. (Platelet Source: Hudson Valley Blood Services, Westchester Medical Center, Valhalla, N.Y.). The tubes containing the PRP are centrifuged at 16,000×g for 10 minutes at 4° C. and the supernatant fluid discarded. The platelets resuspended in an equal volume of 50.0 mM Tris.HCL, pH 7.5 containing 120 mM NaCl and 20.0 mM EDTA. The suspension is recentrifuged at 16,000×g for 10 minutes. This washing step is repeated one more time. The wash discarded and the lysed pellets homogenized in low ionic strength buffer of Tris. HCl, […], pH 7.5 containing 5.0 mM EDTA. The homogenate is centrifuged at 39,000×g for 10 minutes. The resulting pellet is resuspended in Tris.HCl buffer, 70.0 mM, pH 7.5 and recentrifuged at 39,000×g for 10 minutes. […]
In wells of a 96 well format microtiter plate, add 100 ml of 50.0 mM Tris. […] Non specific binding is measured in the presence of 1.0 mM of unlabeled ligand (Manning or Arg^8 Vasopressin). […] The radioactivity caught on the filter disks is determined by the addition of liquid scintillant and counting in a liquid scintillator.

[2] = molecular target: T2, vasopressin V2 receptor (rat kidney medullary) (Rattus norvegicus, UniProt Q00788); test: Binding Assay to Rat Kidney Medullary V2 Receptors; conditions: for inhibition at 10 µM: rat kidney V2
T2 construct: Medullary tissues from rat kidneys are dissected out; from tissue; host or cells: rat kidney medulla membranes
T2 sequence (Q00788 whole entry): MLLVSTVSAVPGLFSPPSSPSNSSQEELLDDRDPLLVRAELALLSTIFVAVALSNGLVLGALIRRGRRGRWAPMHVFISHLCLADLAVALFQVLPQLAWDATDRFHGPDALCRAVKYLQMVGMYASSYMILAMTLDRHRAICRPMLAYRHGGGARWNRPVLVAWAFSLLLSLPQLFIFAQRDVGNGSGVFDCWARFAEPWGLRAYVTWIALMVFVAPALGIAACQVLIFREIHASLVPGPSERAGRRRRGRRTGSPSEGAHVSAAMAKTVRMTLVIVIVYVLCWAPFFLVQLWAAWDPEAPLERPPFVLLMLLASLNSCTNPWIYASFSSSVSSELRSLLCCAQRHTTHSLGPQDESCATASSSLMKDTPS
Protocol: Binding Assay to Rat Kidney Medullary V2 Receptors
Medullary tissues from rat kidneys are dissected out, cut into small pieces and soaked in a […] sodium chloride solution containing 1.0 mM EDTA with many changes of the liquid phase, until the solution is clear of blood. […] The tissue is homogenized in a 0.25M sucrose solution containing 1.0 mM EDTA and 0.1 mM PMSF using a Potter-Elvehjem homogenizer with a teflon pestle. The homogenate is filtered through several layers (4 layers) of cheese cloth. The filtrate is rehomogenized using a dounce homogenizer, with a tight fitting pestle. The final homogenate is centrifuged at 1500×g for 15 min. The nuclear pellet is discarded and the supernatant fluid recentrifuged at 40,000×g for 30 min. The resulting pellet formed contains a dark inner part with the exterior, slightly pink. The pink outer part is suspended in a small amount of 50.0 mM Tris.HCl buffer, pH 7.4. The protein content is determined by the Lowry's method (Lowry et al., J. Biol. Chem., 1953). The membrane suspension is stored at -70° C., in 50.0 mM Tris.HCl, containing 0.2% inactivated BSA and 0.1 mM PMSF in aliquots of 1.0 ml containing 10.0 mg protein per ml of suspension until sue in subsequent binding experiments.
For binding experiments, the following is added in ml volume to wells of a 96 well format of a microtiter plate: 100.0 ml of 100.0 mM Tris.HCl buffer containing 0.2% heat inactivated BSA, 10.0 mM MgCL2 and a mixture of protease inhibitors: leupeptin, 1.0 mg %; aprotinin, 1.0 mg % 1,10-phenanthroline, 2.0 mg %; trypsin inhibitor, and 0.1 mM PMSF, 20.0 ml of [^3 H] Arginine^8, vasopressin (S.A. 75.0 Ci/mmole) at 0.8 nM and the reaction initiated by the addition of 80.0 ml of tissue membranes (200.0 mg tissue protein). The plates are left undisturbed on the bench top for 120 minutes to reach equilibrium. Non-specific binding is assessed in the presence of 1.0 mM of unlabeled ligand, added in 20 ml volume. For test compounds, these are solubilized in 50% dimethylsulfoxide (DMSO) and added in 20.0 ml volume to a final incubation volume of […]. Upon completion of binding, the content of each well is filtered off, using a Brandel® cell Harvester (Gaithersburg, Md.). The radioactivity trapped on the filter disk by the ligand-receptor complex is assessed by liquid scintillation counting in a Parkard LS Counter, with an efficiency of 65% for tritium.

inhibition at 10 µM [2]: 33%
SMILES: O=C(c1ccccc1)c1ccc(C(=O)N2Cc3ccccc3Oc3ccccc32)cc1 [Example 32, 10-(4-Benzoylbenzoyl)-10,11-dihydrodibenz[b,f][1,4]oxazepine]

inhibition at 10 µM [2]: 29%
SMILES: O=C(c1ccc(-c2ccccc2)cc1)N1Cc2ccccc2Oc2ccccc21 [Example 26, 10-([1,1'-Biphenyl]-4-ylcarbonyl)-10,11-dihydrodibenz[b,f][1,4]oxazepine]

IC50 ([2]; rat kidney medullary V2 receptors): 29 nM
SMILES: Cc1ccc(F)cc1C(=O)Nc1ccc(C(=O)N2Cc3sccc3Cc3ccccc32)cn1 [Example 2, N-[5-[(9,10-Dihydro-4H-thieno[2,3-c][1]benzazepin-9-yl)carbonyl]-2-pyridinyl]-5-fluoro-2-methylbenzamide]

Continued, molecule first:

SMILES: CCCCOc1ccc(C(=O)N2Cc3ccccc3Cc3ccccc32)cc1 [Example 24]
V1 % ([1]; "(μM)" (concentration not given), 90 min): 72%

SMILES: O=C(c1ccc(-c2ccccc2)cc1)N1Cc2sccc2Cc2ccccc21 [Example 27, 9-([1,1'-Biphenyl]-4-ylcarbonyl)-9,10-dihydro-4H-thieno[2,3-c][1]benzazepine]
IC50 [1]: 14 nM

SMILES: Cc1ccc(F)cc1C(=O)Nc1ccc(C(=O)N2Cc3ccccc3CCc3ccccc32)cn1 [Example 45]
inhibition at 10 µM [2]: 62%

SMILES: Cc1ccc(F)cc1C(=O)Nc1ccc(C(=O)N2Cc3ccccc3Oc3ncccc32)cn1 [Example 4, N-[5-(Pyrido[2,3-b][1,4]benzoxazepin-5(6H)-ylcarbonyl)-2-pyridinyl]-5-fluoro-2-methylbenzamide]
inhibition at 10 µM [2]: 20%
